The source of these data is patent US12528840B2, “Transcription active complex targeting cancer drug from viral protein sequence” (The Regents of the University of California, priority 2020, dated 2026).

For experiment [1], the system named is U937 cell line. Nature of the experiment: MTT assay, U937. To be noted: U973 monocytic leukemia cell line. Type of experiment: cell-based. How it is done:
FIG. 6. Viral and cellular responses to K-Rta peptide; identification of VGN50. (a) Protein sequence alignment. FIG. 6(A) The effect of VGN50 on various cancer cell types. MTT assays were performed with the indicated cell lines treated with various VGN50 concentrations. The O.D. of mock-treated samples were set as 100%, and O.D. from detergent treated cells were set as 0%. Percentage viability+/−SD was calculated for each treatment (N=3 samples/treatment). FIG. 6(B) Viability assay with flow cytometry. Cell viability was measured in triplicate with live/dead staining and the cell killing effects on cancer cells was compared with normal peripheral blood mononuclear cells (PBMC) from three healthy donors. Results are presented as percentage viability+/−SD deviation (N=3 samples/group).
As shown in FIG. 6(a), multiple cancer cell lines were used for MTT assay to evaluate cancer cell killing efficacies of the MBK50 peptide at different concentrations (cell variability studies). […] Importantly, human peripheral blood mononuclear cells (PBMCs) from healthy donors were approximately 10-fold less sensitive to MBK-mediated killing compared to myeloid and lymphoid cancer cell lines (e.g., THP-1 and BCBL-1) as assessed by flow cytometry after live/dead staining (FIG. 6(b)). […]

Experiment [2] deals with activated CD3 T cells. Nature of the experiment: Cytokine production by anti-CD3 stimulated PBMCs (Luminex 10 plex). The class given is cell-based, human. To be noted: 32 μM, 48 hours, vs untreated and control peptide-treated cultures. How it is done:
The effect of the peptide on cytokine production by human lymphoctyes were studied by an in vitro culture system. PBMCs were stimulated with anti-CD3 antibody in the presence of PBS, MBK50 (32 μM) or Mutant peptide (32 μM) in duplicates for 48 hours. The supernatant was recovered and assayed for 10 common cytokines 4-1(3, IL-2, IL-4, IL-5, IL-6, IL-8, IL-10, GM-CSF, IFNγ, TNFα) with Luminex using human 10 plex beads assay kit (Invitrogen).

The test system of experiment [3] is BCBL-1 PEL cells. Description: Cytokines in ascites of BCBL-1 PEL xenograft mice (Olink inflammatory panel). Type of experiment: in vivo. How it is done:
Also, the effect of peptide on cytokine production by BCBL-1 PEL cells in xenograft mouse model was studied. Acsite was collected from NRG mice baring BCBL-1 PELs, which were either treated with wild type MBK50 (Wt) peptide (n=3), control Mut peptide (n=3) or left untreated (n=3) for 20 days. The levels of cytokines in the ascites were measured by Olink technology using inflammatory panel that can detect 92 inflammatory proteins. Data was analyzed with Olink Insights Stat analysis software. […] Thus, inflammatory protein expression profile of Wt peptide is distinct from the profile of other groups. […] On the right panel in (FIG. 12c), 15 cytokine expression levels expressed in NPX units, Olink's arbitrary unit, on log 2 scale were compared between untreated, mutant peptide and Wt peptide-treated groups.

Take LSSILQGLYQLDT [MBK50]: the “sensitivity to cell killing” value in experiment [1] is on record as “sensitive”. For the same sequence, the “cytokine levels in supernatant, all detected except IL-10 and TNFα” value in experiment [2] is listed as “significantly reduced”. In experiment [3], the “decrease of CXCL10” value is reported as approximately 200 fold, the “decrease of VEGFA” value is reported as approximately 4 fold and the “expression change of the majority of the 15 cytokines” value is listed as “about 2 fold”. The “PC analysis of 92 inflammatory protein expression profiles” value in experiment [3] (20 days treatment) is “away from the cluster”. In addition, the “number of cytokines significantly up- or down-regulated among 92” value in experiment [3] (p<0.05) stood at 15.
